Measured values as given in US11629171B2, “Beta-hairpin peptidomimetics” (POLYPHOR AG, priority 2017, dated 2023).
≈ marks a conversion by molar mass, not a printed value. Where a SMILES comes first, the peptide text is derived from it. Bridges are numbered along the chain shown (N, C = ends). Roman numbers before positions name the chains, in order. [ ]: non-standard residue; d: D form. Leu(3R-OH) = CC(C)[C@@H](O)[C@H](N)C(=O)O; Thr(ol) = C[C@@H](O)[C@H](N)CO; Tle = CC(C)(C)[C@H](N)C(=O)O; Hiv = CC(C)[C@H](O)C(=O)O; dDab = NCC[C@@H](N)C(=O)O; Nle = CCCC[C@H](N)C(=O)O; Dab = NCC[C@H](N)C(=O)O; Nva = CCC[C@H](N)C(=O)O; Abu = CC[C@H](N)C(=O)O; Dap = NC[C@H](N)C(=O)O

What was measured:
Assay type in all cases: cell-based
[1] = test system: Acinetobacter baumannii 872842; settings: 872842
In short: (§1)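 CLSI broth microdilution in cation-adjusted Mueller-Hinton II broth with 0.002% polysorbate 80 (final), inoculum appr. 10^6 CFU/mL, peptides in serial two-fold dilutions. MIC (μg/mL) is the lowest concentration without visible growth after 18-20 h at 35° C.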

[2] = test system: Acinetobacter baumannii DSM 30008; settings: DSM 30008
In short: as §1

[3] = test system: Enterobacter cloacae 848840; settings: 848840
In short: as §1

Escherichia coli 926415 = settings: 926415
In short: as §1

[4] = test system: Escherichia coli ATCC 25922; settings: ATCC 25922
In short: as §1

[5] = test system: Klebsiella pneumoniae 968733; settings: 968733
In short: as §1

[6] = test system: Klebsiella pneumoniae SSI #3010; settings: SSI #3010
In short: as §1

[7] = test system: Pseudomonas aeruginosa ATCC 27853; settings: ATCC 27853
In short: as §1

[8] = test system: human red blood cells (hRBC); experiment: Hemolysis; settings: red cells of human, 1 h, 200
In short: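 Read-out is supernatant absorbance at 540 nm, normalised to full lysis by 2% Triton X-100 and zero lysis by PBS with 10% water. Peptides (200 μg/mL) were exposed to 20% v/v washed human erythrocytes at 37° C for 1 h under shaking.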

MIC [1] [µg/mL]	Acinetobacter baumannii DSM 30008 MIC [2] [µg/mL]	MIC [3] [µg/mL]	MIC (Escherichia coli 926415) [µg/mL]	Escherichia coli ATCC 25922 MIC [4] [µg/mL]	MIC [5] [µg/mL]	Klebsiella pneumoniae SSI #3010 MIC [6] [µg/mL]	Pseudomonas aeruginosa ATCC 27853 MIC [7] [µg/mL]	MIC [2] [µg/mL]	MIC [4] [µg/mL]	MIC [6] [µg/mL]	MIC [7] [µg/mL]	Structure (SMILES)	Hemolysis at 200 μg/mL [8] [%]
0.5 (≈ 0.208 µM)	0.125	0.5 (≈ 0.208 µM)	2 (≈ 0.831 µM)	0.0625	2 (≈ 0.831 µM)	0.125	0.125	–	–	–	–	CC(=O)N[C@H](C(=O)N[C@H]1CCN(C)C(=O)C[C@@H](C(=O)N[C@@H](CO)C(N)=O)NC(=O)[C@H](C(C)C)NC(=O)[C@H](CO)NC(=O)[C@H](Cc2c[nH]c3ccccc23)NC(=O)[C@H](CO)NC(=O)[C@@H](CCN)NC(=O)[C@H](CCC(=O)N[C@@H](CCN)C(=O)N[C@H](C(=O)N[C@@H](CN)C(=O)N[C@H]2CCNC(=O)[C@H]([C@@H](C)O)NC(=O)[C@H](CCN)NC(=O)[C@H](CCN)NC(=O)[C@H](CC(C)C)NC(=O)[C@@H](CC(C)C)NC(=O)[C@H](CCN)NC2=O)[C@@H](C)O)NC(=O)[C@H](CCN)NC(=O)[C@H](Cc2ccc(O)cc2)NC1=O)C(C)C [Ex. 302]	3
0.25 (≈ 0.103 µM)	–	0.5 (≈ 0.206 µM)	0.125 (≈ 0.0515 µM)	–	0.25 (≈ 0.103 µM)	–	–	0.125 (≈ 0.0515 µM)	0.125 (≈ 0.0515 µM)	0.125 (≈ 0.0515 µM)	0.25 (≈ 0.103 µM)	CC(=O)N[C@@H](CCN)C(=O)N[C@H](C(=O)N[C@H]1CSSC[C@@H](C(N)=O)NC(=O)[C@H](C(C)(C)C)NC(=O)[C@H](CO)NC(=O)[C@H](Cc2c[nH]c3ccccc23)NC(=O)[C@H](CCN)NC(=O)[C@@H](CCN)NC(=O)[C@H](CCC(=O)N[C@@H](CCN)C(=O)N[C@H](C(=O)N[C@@H](CN)C(=O)N[C@H]2CCNC(=O)[C@H]([C@@H](C)O)NC(=O)[C@H](CCN)NC(=O)[C@H](CCN)NC(=O)[C@H](CC(C)C)NC(=O)[C@@H](CC(C)C)NC(=O)[C@H](CCN)NC2=O)[C@@H](C)O)NC(=O)[C@H](CN)NC(=O)[C@H](Cc2ccc(O)cc2)NC1=O)C(C)C [Ex. 126] (I: Ac-[Dab]VCY[Dap]E[dDab][Dab]WS[Tle]C-NH2 / II: [Dab]T[Dap][Dab][Dab][dL]L[Dab][Dab]T; disulfide I:3-I:12; amide I:6-II:N; lactam II:4-II:C)	<1
0.0625 (≈ 0.0252 µM)	–	0.125 (≈ 0.0503 µM)	0.125 (≈ 0.0503 µM)	–	0.125 (≈ 0.0503 µM)	–	–	0.03125 (≈ 0.0126 µM)	0.03125 (≈ 0.0126 µM)	0.03125 (≈ 0.0126 µM)	0.125 (≈ 0.0503 µM)	CC(=O)N[C@H](C(=O)N[C@H]1CSSC[C@@H](C(=O)N[C@H](C(N)=O)[C@@H](C)O)NC(=O)[C@H](C(C)(C)C)NC(=O)[C@H](CCC(=O)O)NC(=O)[C@H](Cc2c[nH]c3ccccc23)NC(=O)[C@H](CCN)NC(=O)[C@@H](CCN)NC(=O)[C@H](CCC(=O)N[C@@H](CCN)C(=O)N[C@H](C(=O)N[C@@H](CN)C(=O)N[C@H]2CCNC(=O)[C@H]([C@@H](C)O)NC(=O)[C@H](CCN)NC(=O)[C@H](CCN)NC(=O)[C@H]([C@H](O)C(C)C)NC(=O)[C@@H](CC(C)C)NC(=O)[C@H](CCN)NC2=O)[C@@H](C)O)NC(=O)[C@H](CO)NC(=O)[C@H](Cc2ccc(O)cc2)NC1=O)C(C)C [Ex. 134] (I: Ac-VCYSE[dDab][Dab]WE[Tle]CT-NH2 / II: [Dab]T[Dap][Dab][Dab][dL][Leu(3R-OH)][Dab][Dab]T; disulfide I:2-I:11; amide I:5-II:N; lactam II:4-II:C)	3
0.125 (≈ 0.0524 µM)	0.03125	0.0625 (≈ 0.0262 µM)	0.125 (≈ 0.0524 µM)	0.01562	0.125 (≈ 0.0524 µM)	0.0625	0.125	–	–	–	–	CCC[C@@H]1NC(=O)[C@@H](CC(C)C)NC(=O)[C@H](CCN)NC(=O)[C@@H](NC(=O)[C@H](CN)NC(=O)[C@@H](NC(=O)[C@H](CCN)NC(=O)CC[C@@H]2NC(=O)[C@H](CCN)NC(=O)[C@H](Cc3ccc(O)cc3)NC(=O)[C@@H](NC(=O)[C@@H](NC(C)=O)C(C)C)CSSC[C@@H](C(=O)N[C@@H](CO)C(N)=O)NC(=O)[C@H](C(C)C)NC(=O)[C@H](CO)NC(=O)[C@H](Cc3c[nH]c4ccccc34)NC(=O)[C@H](CO)NC(=O)[C@@H](CCN)NC2=O)[C@@H](C)O)CCNC(=O)[C@H]([C@@H](C)O)NC(=O)[C@H](CCN)NC(=O)[C@H](CCN)NC1=O [Ex. 313] (I: Ac-VCY[Dab]E[dDab]SWSVCS-NH2 / II: [Dab]T[Dap][Dab][Dab][dL][Nva][Dab][Dab]T; disulfide I:2-I:11; amide I:5-II:N; lactam II:4-II:C)	<1
0.0625 (≈ 0.0264 µM)	–	0.25 (≈ 0.105 µM)	0.0625 (≈ 0.0264 µM)	–	0.0625 (≈ 0.0264 µM)	–	–	0.03125 (≈ 0.0132 µM)	0.03125 (≈ 0.0132 µM)	0.0625 (≈ 0.0264 µM)	0.0625 (≈ 0.0264 µM)	CC(C)C[C@@H]1NC(=O)[C@@H](CC(C)C)NC(=O)[C@H](CCN)NC(=O)[C@@H](NC(=O)[C@H](CN)NC(=O)[C@@H](NC(=O)[C@H](CCN)NC(=O)CC[C@@H]2NC(=O)[C@H](CO)NC(=O)[C@H](Cc3ccc(O)cc3)NC(=O)[C@@H](NC(=O)[C@@H](O)C(C)C)CSSC[C@@H](C(=O)N[C@@H](CO)C(N)=O)NC(=O)[C@H](C(C)(C)C)NC(=O)[C@H](CO)NC(=O)[C@H](Cc3c[nH]c4ccccc34)NC(=O)[C@H](CCN)NC(=O)[C@@H](CCN)NC2=O)[C@@H](C)O)CCNC(=O)[C@H]([C@@H](C)O)NC(=O)[C@H](CCN)NC(=O)[C@H](CCN)NC1=O [Ex. 271] (I: H-[Hiv]CYSE[dDab][Dab]WS[Tle]CS-NH2 / II: [Dab]T[Dap][Dab][Dab][dL]L[Dab][Dab]T; disulfide I:2-I:11; amide I:5-II:N; lactam II:4-II:C)	<1
0.03125 (≈ 0.013 µM)	–	0.125 (≈ 0.0518 µM)	0.03125 (≈ 0.013 µM)	–	0.0625 (≈ 0.0259 µM)	–	–	0.03125 (≈ 0.013 µM)	0.0625 (≈ 0.0259 µM)	0.03125 (≈ 0.013 µM)	0.125 (≈ 0.0518 µM)	CCCC[C@H](NC(C)=O)C(=O)N[C@H]1CSSC[C@@H](C(=O)N[C@H](C(N)=O)[C@@H](C)O)NC(=O)[C@H](C(C)(C)C)NC(=O)[C@H](CO)NC(=O)[C@H](Cc2c[nH]c3ccccc23)NC(=O)[C@H](CO)NC(=O)[C@@H](CCN)NC(=O)[C@H](CCC(=O)N[C@@H](CCN)C(=O)N[C@H](C(=O)N[C@@H](CN)C(=O)N[C@H]2CCNC(=O)[C@H]([C@@H](C)O)NC(=O)[C@H](CCN)NC(=O)[C@H](CCN)NC(=O)[C@H](CC)NC(=O)[C@@H](CC(C)C)NC(=O)[C@H](CCN)NC2=O)[C@@H](C)O)NC(=O)[C@H](CCN)NC(=O)[C@H](Cc2ccc(O)cc2)NC1=O [Ex. 142] (I: Ac-[Nle]CY[Dab]E[dDab]SWS[Tle]CT-NH2 / II: [Dab]T[Dap][Dab][Dab][dL][Abu][Dab][Dab]T; disulfide I:2-I:11; amide I:5-II:N; lactam II:4-II:C)	<1
0.03125 (≈ 0.013 µM)	–	0.0625 (≈ 0.026 µM)	0.03125 (≈ 0.013 µM)	–	0.0625 (≈ 0.026 µM)	–	–	0.01562 (≈ 0.00651 µM)	0.01562 (≈ 0.00651 µM)	0.0625 (≈ 0.026 µM)	0.0625 (≈ 0.026 µM)	CC(=O)N[C@H](C(=O)N[C@H]1CSSC[C@@H](C(=O)N[C@H](CO)[C@@H](C)O)NC(=O)[C@H](C(C)(C)C)NC(=O)[C@H](CO)NC(=O)[C@H](Cc2c[nH]c3ccccc23)NC(=O)[C@H](CO)NC(=O)[C@@H](CCN)NC(=O)[C@H](CCC(=O)N[C@@H](CCN)C(=O)N[C@H](C(=O)N[C@@H](CN)C(=O)N[C@H]2CCNC(=O)[C@H]([C@@H](C)O)NC(=O)[C@H](CCN)NC(=O)[C@H](CCN)NC(=O)[C@H](CC(C)C)NC(=O)[C@@H](CC(C)C)NC(=O)[C@H](CCN)NC2=O)[C@@H](C)O)NC(=O)[C@H](CN)NC(=O)[C@H](Cc2ccc(O)cc2)NC1=O)C(C)C [Ex. 123] (I: Ac-VCY[Dap]E[dDab]SWS[Tle]C[Thr(ol)] / II: [Dab]T[Dap][Dab][Dab][dL]L[Dab][Dab]T; disulfide I:2-I:11; amide I:5-II:N; lactam II:4-II:C)	<1
2 (≈ 0.865 µM)	1	2 (≈ 0.865 µM)	4 (≈ 1.73 µM)	0.125	>8	0.25	0.5	–	–	–	–	CC(=O)N[C@H](C(=O)N[C@H]1CSSC[C@@H](C(=O)O)NC(=O)[C@H](C(C)C)NC(=O)[C@H](CO)NC(=O)[C@H](Cc2c[nH]c3ccccc23)NC(=O)[C@H](CO)NC(=O)[C@@H](CCN)NC(=O)[C@H](CCC(=O)N[C@@H](CCN)C(=O)N[C@H](C(=O)N[C@@H](CN)C(=O)N[C@H]2CCNC(=O)[C@H]([C@@H](C)O)NC(=O)[C@H](CCN)NC(=O)[C@H](CCN)NC(=O)[C@H](CC(C)C)NC(=O)[C@@H](CC(C)C)NC(=O)[C@H](CCN)NC2=O)[C@@H](C)O)NC(=O)[C@H](CCN)NC(=O)[C@H](Cc2ccc(O)cc2)NC1=O)C(C)C [Ex. 384] (I: Ac-VCY[Dab]E[dDab]SWSVC-OH / II: [Dab]T[Dap][Dab][Dab][dL]L[Dab][Dab]T; disulfide I:2-I:11; amide I:5-II:N; lactam II:4-II:C)	<1
